Laboratory results from US20230039836A1, “AROMATIC SULPHONAMIDES DERIVATIVES THAT INHIBITS PDI A3, THEIR SYNTHESIS AND USE” (Uniwersytet Jagiellonski, priority 2020, published 2023).

Experiments:
PDI A1 = target: T1, PDI A1 (Homo sapiens, UniProt P07237); assay: Insulin turbidometric assay, inhibition of PDI A1; type: biochemical; conditions: insulin reduction, turbidity at 650 nm, 60 min incubation at 37° C.; read-out: Inhibition of PDI A1 (EC 50)
T1 construct: purchased Mybiosource; host or cells: E. coli
Method: The inhibitory effects compounds of invention on activity of PDI A1 was assess based on the insulin turbidometric assay. Enzymatic activity of PDIA1 was confirmed by measuring the turbidity increase at 650 nm due to insulin reduction. The assay mixture was prepared by addition 10 ug/ml PDIA1 (E.coli recombinant protein; Mybiosource), 0.1 mM phosphate buffer (pH7.6), 1 mM EDTA, 0.087 mM DTT and with or without tested compound and was incubated for 60 min, at 37° C. Reaction was started by addition insulin and DTT. Final concentration of insulin and DTT in assay mixture was 0.15 mM and 0.174 mM, respectively. Turbidity was detected at 650 nm against reference samples without PDI A1s. The measurements were performed at 650 nm using 120-s recordings.

[1] = tested on: MCF-7 (human breast adenocarcinoma, estrogen-positive); assay: MTT antiproliferative assay, 48 h; type: cell-based; conditions: for IC50: Homo sapiens, MCF7, 48-hour exposition, read-out: Cytotoxicity, IC50, µM MCF-7
Method: (§1) About 2000-4000 cells per well (depending on line nature) were placed in 96-well plates and after 24 h compounds were added to the wells. Untreated cells were used as a control. The plates were incubated for 48 h, 37° C., 5% CO2. The number of surviving cells was determined using 3-(4,5-dimethylthiazol-2-yl)-2,5-diphenyltetrazolinium bromide (MTT). MTT-test: after incubating culture medium was removed and 200 µL fresh medium with 20 µL MTT (2 mg/mL in HBSS) was added in each well of the plate. After incubation (3 hr., 37° C., 5% CO2), the medium with MTT was removed and 200 µL DMSO were added at once to each sample. The samples were tested at 540 nm on Thermo Scientific Multiskan EX microplate photometer. The half-maximal inhibitory concentration (IC50) of each compound was calculated using Graph Pad Prism® 3.0.

[2] = tested on: Caco-2 (human colon adenocarcinoma); assay: MTT antiproliferative assay, 48 h; type: cell-based; conditions: for IC50: Homo sapiens, Caco-2, 48-hour exposition, read-out: Cytotoxicity, IC50, µM CaCo-2
Method: as §1

[3] = tested on: MDA-MB-231 (human mammary breast adenocarcinoma); assay: MTT antiproliferative assay, 48 h; type: cell-based; conditions: for IC50: Homo sapiens, MDA-MB-231, 48-hour exposition, read-out: Cytotoxicity, IC50, µM MDA-MB-231
Method: as §1

[4] = tested on: HT-1080 (human fibrosarcoma); assay: MTT antiproliferative assay, 48 h; type: cell-based; conditions: 48-hour exposition, read-out: Cytotoxicity, IC50, µM HT-1080
Method: as §1

T1 sequence (P07237 18-508, species assumed): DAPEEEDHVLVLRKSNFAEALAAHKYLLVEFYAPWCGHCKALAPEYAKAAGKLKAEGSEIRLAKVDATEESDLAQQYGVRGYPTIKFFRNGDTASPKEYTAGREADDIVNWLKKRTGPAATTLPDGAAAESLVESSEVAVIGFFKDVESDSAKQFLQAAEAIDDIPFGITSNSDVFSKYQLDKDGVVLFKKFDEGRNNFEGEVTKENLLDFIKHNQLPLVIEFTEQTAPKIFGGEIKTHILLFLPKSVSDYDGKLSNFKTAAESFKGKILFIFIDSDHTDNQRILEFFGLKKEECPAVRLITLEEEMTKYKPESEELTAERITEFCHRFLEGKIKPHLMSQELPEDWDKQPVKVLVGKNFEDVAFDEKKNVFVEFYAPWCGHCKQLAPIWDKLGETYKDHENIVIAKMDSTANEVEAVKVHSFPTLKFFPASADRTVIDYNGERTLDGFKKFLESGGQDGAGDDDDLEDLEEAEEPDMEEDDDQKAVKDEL

| SMILES | EC50 (PDI A1) | IC50 [1] | IC50 [2] | IC50 [3] | IC50 [4] | melting point | Cytotoxicity, IC50, µM MCF-7 ([1]; 48-hour exposition) | Cytotoxicity, IC50, µM CaCo-2 ([2]; 48-hour exposition) | Cytotoxicity, IC50, µM MDA-MB-231 ([3]; 48-hour exposition) |
| --- | --- | --- | --- | --- | --- | --- | --- | --- | --- |
| COC(=O)C1CN1S(=O)(=O)c1ccc2c(C=O)c(N(C)C)ccc2c1 (stereo not drawn) [Compound C-3390, Methyl 1-[[6-(dimethylamino)-5-formyl-2-naphthyl]sulfonyl]aziridine-2-carboxylate] | 0.6 µM | 20 ± 0.3 µM | 11 ± 2 µM | 18 ± 0.1 µM | 7.9 ± 0.9 µM |  |  |  |  |
| CNc1ccc2cc(S(=O)(=O)N3CC3C(=O)OC)ccc2c1Cl (stereo not drawn) [Compound C-3393, Methyl 1-[[5-chloro-6-(methylamino)-2-naphthyl]sulfonyl]aziridine-2-carboxylate] | 0.34 µM | 29 ± 3 µM | 35 ± 1 µM | 32 ± 4 µM | 0.46 ± 0.04 µM | 170 to 172 °C |  |  |  |
| CN(C)c1ccc2c(S(=O)(=O)N3CC3C(N)=O)cccc2c1 (stereo not drawn) [Compound C-3459, 1-[[6-(Dimethylamino)-1-naphthyl]sulfonyl]aziridine-2-carboxamide] | 33 µM |  |  |  | > 500 µM | 197 to 199 °C | n.e. | n.e. | n.e. |
| COC(=O)[C@@H]1CN1S(=O)(=O)c1ccc(C)cc1 (stereo partly drawn) [Compound C-3535, Methyl (2S)-1-(p-tolylsulfonyl)aziridine-2-carboxylate] | 11.2 µM | 81 µM | 35 ± 7 µM | 107 ± 11 µM | 84 ± 3 µM |  |  |  |  |
| COC(=O)[C@H]1CN1S(=O)(=O)c1ccc(C)cc1 (stereo partly drawn) [Compound C-3539, Methyl (2R)-1-(p-tolylsulfonyl)aziridine-2-carboxylate] | 29 µM | 113 ± 6 µM | 23 ± 1 µM | 40 ± 5 µM | 20 ± 1 µM |  |  |  |  |
| COC(=O)[C@@H]1CN1S(=O)(=O)c1cccc2cc(N(C)C)ccc12 (stereo partly drawn) [Compound C-3548, Methyl (2S)-1-[[6-(dimethylamino)-1-naphthyl]sulfonyl]aziridine-2-carboxylate] | 6 µM | 37 ± 3 µM | 45 ± 13 µM | 57 ± 9 µM | 9.2 ± 1 µM |  |  |  |  |
| COC(=O)C1CN1S(=O)(=O)c1cccnc1 (stereo not drawn) [Compound C-3559, Methyl 1-(3-pyridylsulfonyl)aziridine-2-carboxylate] | 10.6 µM | 154 ± 25 µM | 260 ± 55 µM | 128 ± 8 µM | 372 ± 23 µM |  |  |  |  |
| NC(=O)C1CN1S(=O)(=O)c1cccnc1 (stereo not drawn) [Compound C-3562, 1-(3-pyridylsulfonyl)aziridine-2-carboxamide] | 29 µM | 57 ± 5 µM | 36 ± 6 µM | 24 ± 2 µM | 31 ± 2 µM | 147 to 149 °C |  |  |  |
| COC(=O)[C@H]1CN1S(=O)(=O)c1cccc2cc(N(C)C)ccc12 (stereo partly drawn) [Compound C-3570, Methyl (2R)-1-[[6-(dimethylamino)-1-naphthyl]sulfonyl]aziridine-2-carboxylate] | 11 µM | 29 ± 2 µM | 13 ± 1 µM | 14 ± 3 µM | 12 ± 1 µM |  |  |  |  |
